Patent US9005677B2, “Autophagy enhancer for treatment of neurodegenerative diseases” (Macau University of Science and Technology, priority 2013, dated 2015)

System: GFP-LC3 puncta formation in PC12 cells
Assay: Quantification of autophagy GFP-LC3 puncta
Assay type: cell-based, rat
Settings: fluorescent microscopy
Description: Quantification of autophagy GFP-LC3 Puncta. GFP-LC3 puncta formation was quantified as described previously. In brief, cells grown on coverslips in a 6-well plate were fixed in 4% paraformaldehyde for 20 minutes at room temperature and then rinsed with PBS. Slides were mounted with FluorSave™ mounting media (Calbiochem, San Diego, Calif.) and examined by fluorescence microscopy. The number of GFP-positive cells with GFP-LC3 puncta formation was examined under the Nikon ECLIPSE 80i microscope. Representative images were captured with CCD digital camera Spot RT3™ (Diagnostic Instruments, Inc., Melville, N.Y.). To quantify autophagy, the percentage of cells with punctate GFP-LC3 fluorescence was calculated by counting the number of the cells with punctate GFP-LC3 fluorescence in GFP-positive cells. A minimum of 150 cells from 3 randomly selected fields was scored.

Row | Structure (SMILES) | GFP-LC3 puncta formation
1 | CC1(C)CC[C@]2(C(=O)O)CCC3=C([C@@H](CCl)C[C@@H]4[C@@]5(C)C[C@H](O)[C@H](O)[C@@](C)(C(=O)O)[C@@H]5CC[C@@]34C)[C@@H]2C1 [senegenin] | no autophagy activity
2 | CC1(C)CCC2(C(=O)O)C(O)CC3(C)C(=CCC4C5(C)CC(O)C(O)C(C)(CO)C5CCC43C)C2C1 (centres unmarked) [polygalacic acid] | no autophagy activity
